Here are results for three molecules from ChEMBL document CHEMBL5030526, “Synthesis and Preclinical Validation of Novel Indole Derivatives as a GPR17 Agonist for Glioblastoma Treatment” (J Med Chem, 2021).

One may read the EC50 as the concentration giving half of the maximal effect. For orientation: IC50 means the point on the concentration scale where inhibition reaches its midpoint. By inhibition is commonly meant the share of the control response that was lost under treatment.

The target in series [1] is T1, Uracil nucleotide/cysteinyl leukotriene receptor (Homo sapiens, UniProt Q13304). As to the kind of experiment: Agonist activity at human GPR17 in human SNB-19 cells assessed as decrease in calcium ion levels incubated for 2 hrs by Calcium Fura 2 Dynamic assay.
T1 sequence (Q13304 whole entry): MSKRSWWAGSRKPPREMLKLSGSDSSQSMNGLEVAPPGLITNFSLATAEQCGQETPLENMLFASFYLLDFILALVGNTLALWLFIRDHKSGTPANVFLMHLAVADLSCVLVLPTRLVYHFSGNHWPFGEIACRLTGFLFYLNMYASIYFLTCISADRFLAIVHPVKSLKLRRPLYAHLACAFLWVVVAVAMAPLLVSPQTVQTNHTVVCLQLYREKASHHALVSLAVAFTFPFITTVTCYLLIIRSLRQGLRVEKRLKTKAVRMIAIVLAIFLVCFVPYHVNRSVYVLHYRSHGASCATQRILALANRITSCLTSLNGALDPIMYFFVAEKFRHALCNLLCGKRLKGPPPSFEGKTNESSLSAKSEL
The target in series [2] is T1, Uracil nucleotide/cysteinyl leukotriene receptor. As to the kind of experiment: Agonist activity at human GPR17 in human LN-229 cells assessed as decrease in calcium ion levels incubated for 2 hrs by Calcium Fura 2 Dynamic assay.
Series [3] shares this target. In words: Inverse agonist at human GPR17 in human LN-229 cells assessed as intracellular cAMP levels incubated for 2 hrs by cAMP Glo Dynamic assay. (cAMP levels reflect the balance of adenylyl cyclase and phosphodiesterase activity.)
Series [4] shares this target. In words: Inverse agonist at human GPR17 in human SNB-19 cells assessed as intracellular cAMP levels incubated for 2 hrs by cAMP Glo Dynamic assay.
The test system of series [5] is LN-229. In words: Cytotoxicity effect against human LN-229 cells assessed as cell growth inhibition incubated for 48 hrs by trypan blue exclusion assay. Type of series: functional, cell-based. To be noted: LN-229, 48 h.
Series [6] concerns SNB-19. In words: Cytotoxicity effect against human SNB-19 cells assessed as cell growth inhibition incubated for 48 hrs by trypan blue exclusion assay. To be noted: SNB-19, 48 h. The series is classed as functional, cell-based.
Series [7] addresses T1, Uracil nucleotide/cysteinyl leukotriene receptor. As to the kind of experiment: Agonist activity at human GPR17 in human LN-229 cells assessed as decrease in intracellular cAMP levels incubated for 2 hrs by cAMP Glo Dynamic assay.
Series [8] relates to LN-229. As to the kind of experiment: Cytotoxicity against human LN-229 cells assessed as increase in cell death at 100 uM incubated for 48 hrs by trypan blue exclusion assay. Type of series: functional, cell-based.
Series [9] has as its system SNB-19. In words: Cytotoxicity against human SNB-19 cells assessed as cell growth inhibition at 100 uM incubated for 48 hrs by trypan blue exclusion assay. Type of series: functional. To be noted: read-out: GI.
In series [10] the test system is LN-229. In words: Cytotoxicity against human LN229 cells assessed as cell growth inhibition at 100 uM incubated for 48 hrs by trypan blue exclusion assay. Type of series: functional. The settings on record: read-out: GI.
The nature of series [11]: Cytotoxicity against mouse MEF cells assessed as cell growth inhibition at 100 uM incubated for 48 hrs by trypan blue exclusion assay. Type of series: cell-based.

Active and inactive are the calls of the source. The rule behind the calls is not given here.

For `O=C(O)CCC1=C(C(=O)O)Cc2cc(Cl)cc(Cl)c21`, the EC50 in series [1] is 26.3 µM; in series [2], 26.9 µM; in [3], 16.6 µM; in series [4] it was 17.7 µM.
Take `Cn1nnc2c(C(N)=O)ncn2c1=O` [TEMOZOLOMIDE]: the results for the IC50 in the series on LN-229 [5] and in the series with SNB-19 [6] were 67.8 µM and 69.9 µM, respectively.
Regarding `O=C(Nc1ccccc1)Oc1cc(OC(=O)Nc2ccccc2)c2c(c1)N(C(c1ccc(F)cc1)c1cccc(Cl)c1O)CC2` (stereo not given), the EC50 was 59.6 µM in series [7], 7.67 µM in series [1] and 41.9 µM in series [2]. Moreover, the result with LN-229 [8] was Active. The IC50 with LN-229 [5] came out at 85.3 µM; in the series with SNB-19 [6], 85.5 µM. In addition, the inhibition of growth at 100 µM turned out to be 37% with SNB-19 [9] and 50% in the series on LN-229 [10]. Further, the inhibition at 48 h, 100 µM in [11] was below 5%.
